According to patent publication US20220009918A1, “Chemical Compounds” (GlaxoSmithKline Intellectual Property Development Limited, priority 2018, published 2022):

target: T1, human H-PGDS (Homo sapiens, UniProt O60760); experiment: H-PGDS RapidFire high throughput mass spectrometry assay; format: biochemical; details: inhibition of conversion of PGH2 to PGD2 by H-PGDS
T1 construct: Full length human H-PGDS cDNA (Invitrogen Ultimate ORF IOH13026) was amplified by PCR; 6-His (N); TEV protease cleavage site (N); made in house; host or cells: E. coli BL21 (DE3*) for H-PGDS; Sf9 insect cells (baculovirus) for COX-2
T1 sequence (O60760 whole entry): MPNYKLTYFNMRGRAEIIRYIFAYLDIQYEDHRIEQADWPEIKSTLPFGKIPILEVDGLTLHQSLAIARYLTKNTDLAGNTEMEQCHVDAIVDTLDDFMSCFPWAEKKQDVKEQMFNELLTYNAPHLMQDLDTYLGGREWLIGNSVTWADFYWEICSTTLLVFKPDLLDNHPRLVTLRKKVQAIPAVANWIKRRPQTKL
Procedure: H-PGDS RapidFire™ High Throughput Mass Spectrometry Assay
The H-PGDS RapidFire™ mass spectrometric assay monitors conversion of prostaglandin H2 (PGH2) to prostaglandin D2 (PGD2) by haematopoietic prostaglandin D synthase (H-PGDS). In the assay format described here, the substrate (PGH2) is formed in situ by the action of cyclooxygenase-2 on arachidonic acid. This first step is set up to be fast, and generates a burst of PGH2 at ˜10 μM. The PGH2 is then further converted to PGD2 by the H-PGDS enzyme. […] Plates are then read on the RapidFire™ high throughput solid phase extraction system (Agilent) which incorporates a solid phase extraction step coupled to a triple quadrupole mass spectrometer (AB SCIEX). Relative levels of PGD2 and PGF2α, which acts as a surrogate for substrate, are measured and a percent conversion calculated. Inhibitors are characterised as compounds which lower the conversion of PGH2 to PGD2.
Full length human H-PGDS cDNA (Invitrogen Ultimate ORF IOH13026) was amplified by PCR with the addition of a 5′ 6-His tag and TEV protease cleavage site. The PCR product was digested with NdeI and XhoI and ligated into pET22b+ (Merck Novagen®). Expression was carried out in E. coli strain BL21 (DE3*) using auto-induction Overnight Express™ Instant TB medium (Merck Novagen®) supplemented with 1% glycerol. The culture was first grown at 37° C. and the temperature was reduced to 25° C. when OD600 reached 2.0. Cells were harvested by centrifugation after a further 18 hours. 10 g of E. coli cell pellet was suspended to a total volume of 80 mL in lysis buffer (20 mM Tris-Cl pH 7.5, 300 mM NaCl, 20 mM imidazole, 5 mM p-mercaptoethanol, 10% glycerol). 1 mg/mL protease inhibitors (Protease Inhibitor Cocktail Set III, Merck Calbiochem®) and 1 mg/mL lysozyme were added to the cell suspension. The suspension was then sonicated for 5 min (UltraSonic Processor VCX 750, Cole-Parmer Instrument Co.) with a micro probe (50% amplitude, 10 sec on/off) and then centrifuged at 100,000 g for 90 minutes (at 4° C.). The supernatant was loaded onto a Ni-NTA HiTrap column (5 mL, GE Healthcare, pre-equilibrated in lysis buffer). The column was washed with 10 column volumes of lysis buffer and eluted with lysis buffer containing 500 mM imidazole. The pooled protein peak fractions were concentrated using a 10 kDa centrifugal filter at 3500 g and 4° C. (Amicon Ultra-15 centrifugal filter unit with Ultracel-10 membrane from Millipore). Further purification of the concentrated protein was carried out using gel filtration chromatography on a HiLoad 26/600 Superdex 75 preparative grade column (GE Healthcare Life Sciences) using 50 mM Tris pH 7.5, 50 mM NaCl, 1 mM dithiothreitol, 1 mM MgCl2. Fractions containing the protein were pooled, concentrated as described above, and stored at −80° C.
The full length human COX-2 gene (accession number L15326) was amplified by PCR to generate an EcoRI—HindIII fragment containing an in-frame FLAG tag. This was subcloned into pFastBac 1 (Invitrogen). The COX-2 FLAG plasmid was recombined into the baculovirus genome according to the BAC-to-BAC protocol described by Invitrogen. Transfection into Spodoptera frugiperda (Sf9) insect cells was performed using Cellfectin (Invitrogen), according to the manufacturer's protocol. Super Sf9 cells were cultured in EX420 media (SAFC Biosciences) to a density of approximately 1.5×10^6 cells/mL within a wave bioreactor. Recombinant virus was added at a Multiplicity of Infection (MOI) of 5 and the culture was allowed to continue for 3 days. Cells were harvested using a continuous feed centrifuge run at 2500 g at a rate of approximately 2 L/min with cooling. The resultant cell slurry was re-centrifuged in pots (2500 g, 20 min, 4° C.) and the cell paste was stored at −80° C. […]

**Q.** With C[C@H]1CNC(=O)[C@H]1NC(=O)c1cnc(-c2cc(F)cc(Cl)c2)s1 (racemic) [Example 74, Racemic cis-2-(3-Chloro-5-fluorophenyl)-N-(4-methyl-2-oxopyrrolidin-3-yl)thiazole-5-carboxamide] as the compound, how does the “Potency Range (mean pIC50)” value read?
**A.** *** (*** = pIC50 7.00-7.99)

same assay, conditions: inhibition of conversion of PGH2 to PGD2 by H-PGDS; mean pIC50; read-out: Potency Range (mean pIC50) (converted)

**Q.** Which IC50 does the source give for O=C(NC1CCNC1=O)c1cnc(-c2cccc(Cl)c2)s1 (racemic) [Example 2, Racemic 2-(3-Chlorophenyl)-N-(2-oxopyrrolidin-3-yl)thiazole-5-carboxamide] here?
**A.** 10.2 to 100 nM

**Q.** Which IC50 does the source give for CC1(C)CC(NC(=O)c2cnc(-c3cc(F)cc(Cl)c3)s2)C(=O)N1 (racemic) [Example 14, Racemic 2-(3-Chloro-5-fluorophenyl)-N-(5,5-dimethyl-2-oxopyrrolidin-3-yl)thiazole-5-carboxamide] here?
**A.** 10.2 to 100 nM

**Q.** For CC1(C)CC(NC(=O)c2cnc(-c3cc(F)cc(C(F)F)c3)s2)C(=O)N1 (racemic) [Example 18, Racemic 2-(3-(Difluoromethyl)-5-fluorophenyl)-N-(5,5-dimethyl-2-oxopyrrolidin-3-yl)thiazole-5-carboxamide], which IC50 is on record?
**A.** 10.2 to 100 nM

**Q.** For O=C(NC1CC2(CC2)NC1=O)c1cnc(-c2cc(F)cc(Cl)c2)s1 (racemic) [Example 20, Racemic 2-(3-Chloro-5-fluorophenyl)-N-(5-oxo-4-azaspiro[2.4]heptan-6-Yl)thiazole-5-carboxamide], which IC50 is on record?
**A.** 10.2 to 100 nM

**Q.** With CCC1(CC)CNC(=O)C1NC(=O)c1cnc(-c2cc(F)cc(Cl)c2)s1 (racemic) [Example 23, Racemic 2-(3-Chloro-5-fluorophenyl)-N-(4,4-diethyl-2-oxopyrrolidin-3-yl)thiazole-5-carboxamide] as the compound, how does the IC50 read?
**A.** 102 to 1000 nM

**Q.** With O=C(NC1CC2(CCC2)NC1=O)c1cnc(-c2cc(F)cc(Cl)c2)s1 (racemic) [Example 27, Racemic 2-(3-Chloro-5-fluorophenyl)-N-(6-oxo-5-azaspiro[3.4]octan-7-v)thiazole-5-carboxamide] as the compound, how does the IC50 read?
**A.** 10.2 to 100 nM

**Q.** How did the IC50 turn out when C[C@H]1[C@H](C)NC(=O)[C@@H]1NC(=O)c1cnc(-c2cc(F)cc(Cl)c2)s1 (racemic) [Example 34, Racemic 2-(3-Chloro-5-fluorophenyl)-N-((3R,4S,5S)-4,5-dimethyl-2-oxopyrrolidin-3-yl)thiazole-5-carboxamide; and 2-(3-Chloro-5-fluorophenyl)-N-((3S,4R,5R)-4,5-dimethyl-2-oxopyrrolidin-3-yl)thiazole-5-carboxamide] was run?
**A.** 10.2 to 100 nM

**Q.** O=C(N[C@H]1C(=O)N[C@@H]2CCC[C@@H]21)c1cnc(-c2cc(F)cc(Cl)c2)s1 (racemic) [Example 49, Racemic 2-(3-Chloro-5-fluorophenyl)-N-((3R,3aS,6aR)-2-oxooctahydrocyclopenta[b]pyrrol-3-yl)thiazole-5-carboxamide; and 2-(3-Chloro-5-fluorophenyl)-N-((3S,3aR,6aS)-2-oxooctahydrocyclopenta[b]pyrrol-3-yl)thiazole-5-carboxamide] was tested. Which IC50 did it give?
**A.** 1.02 to 10 nM

**Q.** How did the IC50 turn out when O=C(N[C@@H]1C(=O)N[C@H]2COC[C@H]21)c1cnc(-c2cc(F)cc(Cl)c2)s1 (racemic) [Example 52, Racemic 2-(3-Chloro-5-fluorophenyl)-N-((3S,3aR,6aR)-2-oxohexahydro-1H-furo[3,4-b]pyrrol-3-yl)thiazole-5-carboxamide; and 2-(3-Chloro-5-fluorophenyl)-N-((3R,3aS,6aS)-2-oxohexahydro-1H-furo[3,4-b]pyrrol-3-yl)thiazole-5-carboxamide] was run?
**A.** 10.2 to 100 nM

**Q.** How did the IC50 turn out when O=C(NC1CC2(COC2)NC1=O)c1cnc(-c2cc(F)cc(Cl)c2)s1 (racemic) [Example 55, Racemic 2-(3-Chloro-5-fluorophenyl)-N-(6-oxo-2-oxa-5-azaspiro[3.4]octan-7-yl)thiazole-5-carboxamide] was run?
**A.** 1.02 to 10 nM

**Q.** How did the IC50 turn out when O=C(N[C@H]1C(=O)N[C@H]2CCC[C@H]21)c1cnc(-c2cc(F)cc(Cl)c2)s1 (racemic) [Example 58, Racemic 2-(3-Chloro-5-fluorophenyl)-N-((3R,3aR,6aS)-2-oxooctahydrocyclopenta[b]pyrrol-3-yl)thiazole-5-carboxamide; and 2-(3-Chloro-5-fluorophenyl)-N-((3S,3aS,6aR)-2-oxooctahydrocyclopenta[b]pyrrol-3-yl)thiazole-5-carboxamide] was run?
**A.** 10.2 to 100 nM

**Q.** With CN1CCC(NC(=O)c2cnc(-c3cc(F)cc(Cl)c3)s2)C1=O (racemic) [Example 63, Racemic 2-(3-Chloro-5-fluorophenyl)-N-(1-methyl-2-oxopyrrolidin-3-yl)thiazole-5-carboxamide] as the compound, how does the IC50 read?
**A.** 10.2 to 100 nM

**Q.** For CN(C(=O)c1cnc(-c2cc(F)cc(Cl)c2)s1)C1CCNC1=O (racemic) [Example 65, Racemic 2-(3-Chloro-5-fluorophenyl)-N-methyl-N-(2-oxopyrrolidin-3-yl)thiazole-5-carboxamide], which IC50 is on record?
**A.** 1020 to 10000 nM

**Q.** For COc1ccc(CN2CCC(C)(NC(=O)c3cnc(-c4cc(F)cc(Cl)c4)s3)C2=O)cc1 (racemic) [Example 70, Racemic 2-(3-Chloro-5-fluorophenyl)-N-(1-(4-methoxybenzyl)-3-methyl-2-oxopyrrolidin-3-yl)thiazole-5-carboxamide], which IC50 is on record?
**A.** 102 to 1000 nM

**Q.** CC1(NC(=O)c2cnc(-c3cc(F)cc(Cl)c3)s2)CCNC1=O (racemic) [Example 71, Racemic 2-(3-Chloro-5-fluorophenyl)-N-(3-methyl-2-oxopyrrolidin-3-yl)thiazole-5-carboxamide] was tested. Which IC50 did it give?
**A.** 102 to 1000 nM

**Q.** Which IC50 does the source give for CC1(C)CC(NC(=O)c2cnc(-c3cc(F)cc(Cl)c3)[se]2)C(=O)N1 (racemic) [Example 82, Racemic 2-(3-Chloro-5-fluorophenyl)-N-(5,5-dimethyl-2-oxopyrrolidin-3-yl)-1,3-selenazole-5-carboxamide] here?
**A.** 10.2 to 100 nM

**Q.** How did the IC50 turn out when CC1(C)CC(NC(=O)c2cnc(-c3cc(F)cc(Cl)c3)s2)C(=S)N1 (racemic) [Example 83, Racemic 2-(3-Chloro-5-fluorophenyl)-N-(5,5-dimethyl-2-thioxopyrrolidin-3-yl)thiazole-5-carboxamide] was run?
**A.** 1.02 to 10 nM

**Q.** With CC1(C)C[C@@H](NC(=O)c2cnc(-c3cc(F)cc(Cl)c3)s2)C(=O)N1 (single isomer, unassigned) [Example 15] as the compound, how does the IC50 read?
**A.** 102 to 1000 nM

**Q.** For O=C(N[C@H]1CCNC1=O)c1cnc(-c2cccc3ccoc23)s1 [Example 1, (S)-2-(Benzofuran-7-yl)-N-(2-oxopyrrolidin-3-yl)thiazole-5-carboxamide], which IC50 is on record?
**A.** 10.2 to 100 nM

**Q.** Which IC50 does the source give for O=C(N[C@H]1CCNC1=O)c1cnc(-c2cccc(Cl)c2)s1 [Example 3, (S)-2-(3-Chlorophenyl)-N-(2-oxopyrrolidin-3-yl)thiazole-5-carboxamide] here?
**A.** 10.2 to 100 nM

**Q.** With O=C(N[C@H]1CCNC1=O)c1cnc(-c2cccc(C(F)(F)F)c2)s1 [Example 4, (S)-N-(2-Oxopyrrolidin-3-v)-2-(3-(trifluoromethyl)phenyl)thiazole-5-carboxamide] as the compound, how does the IC50 read?
**A.** 10.2 to 100 nM

**Q.** How did the IC50 turn out when Cc1cccc(-c2ncc(C(=O)N[C@H]3CCNC3=O)s2)c1 [Example 5, (S)-N-(2-Oxopyrrolidin-3-yl)-2-(m-tolyl)thiazole-5-carboxamide] was run?
**A.** 1.02 to 10 nM

**Q.** With O=C(N[C@H]1CCNC1=O)c1cnc(-c2cc(F)cc(Cl)c2)s1 [Example 6, (S)-2-(3-Chloro-5-fluorophenyl)-N-(2-oxopyrrolidin-3-yl)thiazole-5-carboxamide] as the compound, how does the IC50 read?
**A.** 1.02 to 10 nM

**Q.** How did the IC50 turn out when O=C(N[C@H]1CCNC1=O)c1cnc(-c2cc(Cl)ccc2F)s1 [Example 7, (S)-2-(5-Chloro-2-fluorophenyl)-N-(2-oxopyrrolidin-3-yl)thiazole-5-carboxamide] was run?
**A.** 10.2 to 100 nM
